# Activity calls are given as the source filed them. The rule behind the calls is not given here.
# Tested on: Stenotrophomonas maltophilia
# Experiment: Antibacterial activity against trimethoprim-sulfamethoxazole-resistant Stenotrophomonas maltophilia assessed as inhibition of microbial growth up to 50 ug/ml incubated for 24 hrs by microdilution assay
# Format: functional
# Settings: not given
row,Compound,Activity
1,COc1cc(C[C@@H](C)[C@@H](C)Cc2ccc(OC(C)=O)c(OC)c2)ccc1OC(C)=O,inactive
2,COc1cc(C[C@@H](C)[C@@H](C)Cc2ccc(OCCN3CCOCC3)c(OC)c2)ccc1O (racemic),inactive
3,COc1cc(C[C@@H](C)[C@@H](C)Cc2ccc(OC(=O)c3cccnc3)c(OC)c2)ccc1OC(=O)c1cccnc1,inactive
4,COc1cc(C[C@@H](C)[C@@H](C)Cc2ccc(OCCN(C)C)c(OC)c2)ccc1OCCN(C)C,inactive

# Tested on: Acinetobacter baumannii
# Experiment: Antibacterial activity against carbapenem-resistant Acinetobacter baumannii (12-666) assessed as inhibition of microbial growth up to 50 ug/ml incubated for 24 hrs by microdilution assay
# Format: functional
# Settings: not given
row,Compound,Activity
1,COc1cc(C[C@@H](C)[C@@H](C)Cc2ccc(OC(C)=O)c(OC)c2)ccc1OC(C)=O,inactive
2,COc1cc(C[C@@H](C)[C@@H](C)Cc2ccc(OCCN3CCOCC3)c(OC)c2)ccc1O (racemic),inactive
3,COc1cc(C[C@@H](C)[C@@H](C)Cc2ccc(OC(=O)c3cccnc3)c(OC)c2)ccc1OC(=O)c1cccnc1,inactive
4,COc1cc(C[C@@H](C)[C@@H](C)Cc2ccc(OCCN(C)C)c(OC)c2)ccc1OCCN(C)C,inactive

# Tested on: Vero
# Experiment: Cytotoxicity against African green monkey Vero cells assessed as reduction in cell viability incubated for 24 hrs by trypan blue staining based assay
# Settings: Chlorocebus sabaeus
row,Compound,IC50
1,CC[C@@H](CO)NCCN[C@@H](CC)CO [ETHAMBUTOL],391 µg/mL
2,COc1cc(C[C@@H](C)[C@@H](C)Cc2ccc(OC(C)=O)c(OC)c2)ccc1OC(C)=O,95.1 µg/mL
3,COc1cc(C[C@@H](C)[C@@H](C)Cc2ccc(OC(=O)c3cccnc3)c(OC)c2)ccc1OC(=O)c1cccnc1,36.3 µg/mL
4,COc1cc(C[C@@H](C)[C@@H](C)Cc2ccc(OCCN(C)C)c(OC)c2)ccc1OCCN(C)C,> 487 µg/mL

# Tested on: Mycobacterium tuberculosis
# Experiment: Antimycobacterial activity against Mycobacterium tuberculosis H37Rv ATCC 27294 assessed as inhibition of mycobacterial growth up to 50 ug/ml incubated for 2 weeks by MABA method
# Format: functional
# Settings: not given
row,Compound,growth inhibition (GI)
1,COc1cc(C[C@@H](C)[C@@H](C)Cc2ccc(OCCN3CCOCC3)c(OC)c2)ccc1O (racemic),inactive

# Tested on: Klebsiella pneumoniae
# Experiment: Antibacterial activity against extended-spectrum beta-lactamase-positive Klebsiella pneumoniae (14-2081) assessed as inhibition of microbial growth up to 50 ug/ml incubated for 24 hrs by microdilution assay
# Format: functional
# Settings: not given
row,Compound,Activity
1,COc1cc(C[C@@H](C)[C@@H](C)Cc2ccc(OC(C)=O)c(OC)c2)ccc1OC(C)=O,inactive
2,COc1cc(C[C@@H](C)[C@@H](C)Cc2ccc(OCCN3CCOCC3)c(OC)c2)ccc1O (racemic),inactive
3,COc1cc(C[C@@H](C)[C@@H](C)Cc2ccc(OC(=O)c3cccnc3)c(OC)c2)ccc1OC(=O)c1cccnc1,inactive
4,COc1cc(C[C@@H](C)[C@@H](C)Cc2ccc(OCCN(C)C)c(OC)c2)ccc1OCCN(C)C,inactive

# Tested on: Escherichia coli
# Experiment: Antibacterial activity against extended-spectrum beta-lactamase-positive Escherichia coli (14-2081) assessed as inhibition of microbial growth up to 50 ug/ml incubated for 24 hrs by microdilution assay
# Format: functional
# Settings: not given
row,Compound,Activity
1,COc1cc(C[C@@H](C)[C@@H](C)Cc2ccc(OC(C)=O)c(OC)c2)ccc1OC(C)=O,inactive
2,COc1cc(C[C@@H](C)[C@@H](C)Cc2ccc(OCCN3CCOCC3)c(OC)c2)ccc1O (racemic),inactive
3,COc1cc(C[C@@H](C)[C@@H](C)Cc2ccc(OC(=O)c3cccnc3)c(OC)c2)ccc1OC(=O)c1cccnc1,inactive
4,COc1cc(C[C@@H](C)[C@@H](C)Cc2ccc(OCCN(C)C)c(OC)c2)ccc1OCCN(C)C,inactive

# Tested on: Providencia rettgeri
# Experiment: Antibacterial activity against NDM-1 positive Providencia rettgeri assessed as inhibition of microbial growth up to 50 ug/ml incubated for 24 hrs by microdilution assay
# Format: functional
# Settings: not given
row,Compound,Activity
1,COc1cc(C[C@@H](C)[C@@H](C)Cc2ccc(OC(C)=O)c(OC)c2)ccc1OC(C)=O,inactive
2,COc1cc(C[C@@H](C)[C@@H](C)Cc2ccc(OCCN3CCOCC3)c(OC)c2)ccc1O (racemic),inactive
3,COc1cc(C[C@@H](C)[C@@H](C)Cc2ccc(OC(=O)c3cccnc3)c(OC)c2)ccc1OC(=O)c1cccnc1,inactive
4,COc1cc(C[C@@H](C)[C@@H](C)Cc2ccc(OCCN(C)C)c(OC)c2)ccc1OCCN(C)C,inactive

# Tested on: Pseudomonas aeruginosa
# Experiment: Antibacterial activity against carbapenem-resistant Pseudomonas aeruginosa (13-1391) assessed as inhibition of microbial growth up to 50 ug/ml incubated for 48 hrs by microdilution assay
# Format: functional
# Settings: not given
row,Compound,Activity
1,COc1cc(C[C@@H](C)[C@@H](C)Cc2ccc(OC(C)=O)c(OC)c2)ccc1OC(C)=O,inactive
2,COc1cc(C[C@@H](C)[C@@H](C)Cc2ccc(OCCN3CCOCC3)c(OC)c2)ccc1O (racemic),inactive
3,COc1cc(C[C@@H](C)[C@@H](C)Cc2ccc(OC(=O)c3cccnc3)c(OC)c2)ccc1OC(=O)c1cccnc1,inactive
4,COc1cc(C[C@@H](C)[C@@H](C)Cc2ccc(OCCN(C)C)c(OC)c2)ccc1OCCN(C)C,inactive

# Tested on: Mycobacterium tuberculosis
# Experiment: Antimycobacterial activity against Mycobacterium tuberculosis H37Rv ATCC 27294 assessed as inhibition of mycobacterial growth incubated for 2 weeks by MABA method
# Format: functional
# Settings: not given
row,Compound,-logMIC
1,COc1cc(C[C@@H](C)[C@@H](C)Cc2ccc(OC(C)=O)c(OC)c2)ccc1OC(C)=O,4.23
2,COc1cc(C[C@@H](C)[C@@H](C)Cc2ccc(OC(=O)c3cccnc3)c(OC)c2)ccc1OC(=O)c1cccnc1,4.2
3,COc1cc(C[C@@H](C)[C@@H](C)Cc2ccc(OCCN(C)C)c(OC)c2)ccc1OCCN(C)C,4.32

# Same assay, conditions: Mycobacterium tuberculosis, H37Rv ATCC 27294, 336 h
row,Compound,MIC
1,CC[C@@H](CO)NCCN[C@@H](CC)CO [ETHAMBUTOL],3.12 µg/mL
2,COc1cc(C[C@@H](C)[C@@H](C)Cc2ccc(OC(C)=O)c(OC)c2)ccc1OC(C)=O,50 µg/mL
3,COc1cc(C[C@@H](C)[C@@H](C)Cc2ccc(OC(=O)c3cccnc3)c(OC)c2)ccc1OC(=O)c1cccnc1,12.5 µg/mL
4,COc1cc(C[C@@H](C)[C@@H](C)Cc2ccc(OCCN(C)C)c(OC)c2)ccc1OCCN(C)C,6.25 µg/mL

# Tested on: Klebsiella pneumoniae
# Experiment: Antibacterial activity against NDM-1 positive Klebsiella pneumoniae (14-3335) assessed as inhibition of microbial growth up to 50 ug/ml incubated for 24 hrs by microdilution assay
# Format: functional
# Settings: not given
row,Compound,Activity
1,COc1cc(C[C@@H](C)[C@@H](C)Cc2ccc(OC(C)=O)c(OC)c2)ccc1OC(C)=O,inactive
2,COc1cc(C[C@@H](C)[C@@H](C)Cc2ccc(OCCN3CCOCC3)c(OC)c2)ccc1O (racemic),inactive
3,COc1cc(C[C@@H](C)[C@@H](C)Cc2ccc(OC(=O)c3cccnc3)c(OC)c2)ccc1OC(=O)c1cccnc1,inactive
4,COc1cc(C[C@@H](C)[C@@H](C)Cc2ccc(OCCN(C)C)c(OC)c2)ccc1OCCN(C)C,inactive

# Tested on: not listed separately
# Experiment: Selectivity index, ratio of IC50 for cytotoxicity against African green monkey Vero cells to MIC for Mycobacterium tuberculosis H37Rv ATCC 27294
# Format: toxicity, cell-based
# Settings: read-out: Selectivity Index
row,Compound,selectivity ratio
1,CC[C@@H](CO)NCCN[C@@H](CC)CO [ETHAMBUTOL],125
2,COc1cc(C[C@@H](C)[C@@H](C)Cc2ccc(OC(C)=O)c(OC)c2)ccc1OC(C)=O,1.9
3,COc1cc(C[C@@H](C)[C@@H](C)Cc2ccc(OC(=O)c3cccnc3)c(OC)c2)ccc1OC(=O)c1cccnc1,2.9
4,COc1cc(C[C@@H](C)[C@@H](C)Cc2ccc(OCCN(C)C)c(OC)c2)ccc1OCCN(C)C,> 77.9

# Tested on: Escherichia coli
# Experiment: Antibacterial activity against oxacillin-resistant Escherichia coli OXA-48 assessed as inhibition of microbial growth up to 50 ug/ml incubated for 24 hrs by microdilution assay
# Format: functional
# Settings: not given
row,Compound,Activity
1,COc1cc(C[C@@H](C)[C@@H](C)Cc2ccc(OC(C)=O)c(OC)c2)ccc1OC(C)=O,inactive
2,COc1cc(C[C@@H](C)[C@@H](C)Cc2ccc(OCCN3CCOCC3)c(OC)c2)ccc1O (racemic),inactive
3,COc1cc(C[C@@H](C)[C@@H](C)Cc2ccc(OC(=O)c3cccnc3)c(OC)c2)ccc1OC(=O)c1cccnc1,inactive
4,COc1cc(C[C@@H](C)[C@@H](C)Cc2ccc(OCCN(C)C)c(OC)c2)ccc1OCCN(C)C,inactive
